The values that follow come from patent US20110152340A1, “Methods for Identifying Subjects With an Increased Likelihood of Responding to DPP-IV Inhibitors” (BRISTOL-MYERS SQUIBB COMPANY, priority 2008, published 2011).

What all share (format): in vivo, human
Assay [1] in a line: Saxagliptin clinical trials (Trial A and Trial B): HbA1c response by SNP genotype. The procedure:
The association between the SNPs and the response to saxagliptin was evaluated in two ways. SNPs from the genome-wide SNP panel were tested for association with response to DPP-IV inhibitors by two analytical methodologies. In one method, SNPs were identified with significant differences in mean HBA1C response among individuals with different genotypes on treatment, taking into account covariates such as demographic differences with an analysis of covariance (ANCOVA) statistical model. SNPs with consistent in their effect on HBA1C in both trials were considered for further evaluation. In a second method, SNPs were examined for association with response cluster. SNPs consistently associated with response cluster in both trials were further evaluated for influence on fasting glycosylated hemoglobin or glucose levels using analysis of covariance. Sample: Subjects in BMS clinical trials, (Trial A and Trial B) receiving DPP-IV inhibitor ([…]) therapy. All subjects have diabetes and the study group was mixed with respect to age, race and duration of diabetes. Measures: Single nucleotide polymorphisms (SNPs) in a genome-wide panel were genotyped on all subjects essentially as described in Example 1. […] The SNPs that were genotyped likely represent a sample of the polymorphic variation in each gene and are not exhaustive with regard to coverage of the total genetic variation that may be present in each gene. The SNP for which a statistical association to DPP-IV inhibitor-dependent metabolic abnormalities was confirmed is provided in Table III. Statistical Analyses: Initial analysis to determine SNP association with cluster membership was performed using the genotypic test (2-degrees of freedom) implemented in the program PLINK (Purcell et al., 2007 Amer. Journ. Hum […]: a tool set for whole-genome association and population-based linkage analyses). […] Follow-up analysis was performed employing a statistical package, SPSS v.14 (SPSS Inc. Chicago, Ill.). Some SNP associations were also discovered or confirmed using an ANCOVA modeling approach as described below. SNPs that were associated with differential genotype response were identified by a significant difference in HBA1C response (P<=0.05) in two independent trials. Analysis was performed employing a statistical package, SAS v. 8.2 (SAS Institute Inc., Cary, N.C.). […] Baseline glycosylated hemoglobin (HbA1c) and change in HbA1c after twelve weeks (study A) or twenty-four weeks (study B) of DPP-IV inhibitor therapy for each individual were used in this analysis. […] This process was iteratively repeated until all individuals were clustered into groups, either non-responders (poor response to saxagliptin therapy) or super responders (response to saxagliptin therapy). The two-step clustering routine implemented in SPSS version 12 (Chicago, Ill., US) was used. Differences in means between clusters for HbA1c were evaluated using Kruskal-Wallis test. […] The ANCOVA model provides an estimate of mean final HbA1C after treatment for different genotypes, taking into account clinical and demographic information. […] The SNP genotype was included in the model and the difference in HbA1c was estimated between wildtype homozygous and heterozygous or rare homozygous individuals. SNPs that were associated with differential genotype response were identified by a significant (P<=0.05) difference (in the same direction) in HBA1C response between genotypes in two independent trials. Analysis was performed using contrast estimates with the GLM procedure in SAS v. 8.2 (SAS Institute Inc., Cary, N.C.).

Assay [2] in a line: Saxagliptin clinical trials: fasting glucose response by GRINL1A genotype. The protocol: (§1) SNPs from the genome-wide SNP panel were tested for association with response to DPP-IV inhibitors by two analytical methodologies. In one method, SNPs were identified with significant differences in mean HBA1C response among individuals with different genotypes on treatment, taking into account covariates such as demographic differences with an analysis of covariance (ANCOVA) statistical model. SNPs with consistent in their effect on HBA1C in both trials were considered for further evaluation. In a second method, SNPs were examined for association with response cluster. SNPs consistently associated with response cluster in both trials were further evaluated for influence on fasting glycosylated hemoglobin or glucose levels using analysis of covariance.
(§2) Sample: Subjects in BMS clinical trials, (Trial A and Trial B) receiving DPP-IV inhibitor (saxigliptin) therapy. All subjects have diabetes and the study group was mixed with respect to age, race and duration of diabetes. Measures: Single nucleotide polymorphisms (SNPs) in a genome-wide panel were genotyped on all subjects essentially as described in Example 1. […] The SNPs that were genotyped likely represent a sample of the polymorphic variation in each gene and are not exhaustive with regard to coverage of the total genetic variation that may be present in each gene. […] Statistical Analyses: Initial analysis to determine SNP association with cluster membership was performed using the genotypic test (2-degrees of freedom) implemented in the program PLINK (Purcell et al., 2007 Amer. Journ. Hum Genet. 81: 559-75. PLINK: a tool set for whole-genome association and population-based linkage analyses). […] Follow-up analysis was performed employing a statistical package, SPSS v.14 (SPSS Inc. Chicago, Ill.). […] SNPs that were associated with differential genotype response were identified by a significant difference in HBA1C response (P<=0.05) in two independent trials. Analysis was performed employing a statistical package, SAS v. […] Differences in means between clusters for HbA1c were evaluated using Kruskal-Wallis test.

Assay [3] in a line: Saxagliptin clinical trials: AUC glucose response by GRINL1A genotype. The protocol: as §1, §2

Each structure is given as a SMILES string.

Regarding `N#C[C@@H]1C[C@@H]2C[C@@H]2N1C(=O)[C@@H](N)C12CC3CC(CC(O)(C3)C1)C2` [saxagliptin, (1S,3S,55)-2-[(2S)-2-amino-2-(3-hydroxytricyclo[3.3.1.1^3,7]dec-1-yl)-1-oxoethyl]-2-azabicyclo[3.1.0]hexane-3-carbonitrile], the “mean change in HbA1c levels” value in assay [1] (FIG. 9, GRINL1A position 87,992, reference carriers vs SNP variant carriers) is “higher reduction in mean glycosylated hemoglobin”; in assay [1] (FIG. 12, HSD11B1 position 34,403, reference carriers vs SNP carriers) it was “higher reduction in mean glycosylated hemoglobin”; in assay [1] (FIG. 13, CHST10 position 24,707, reference carriers vs SNP carriers), “higher reduction in mean glycosylated hemoglobin”; in assay [1] (FIG. 14, CHST10 position 34,078, reference carriers vs SNP carriers) it was “higher reduction in mean glycosylated hemoglobin”; in assay [1] (FIG. 15, CHST10 position 35,799, reference carriers vs SNP carriers), “higher reduction in mean glycosylated hemoglobin”; in assay [1] (FIG. 16, CHST10 position 38,709, reference carriers vs SNP carriers), “higher reduction in mean glycosylated hemoglobin”. Also, the “mean change in HbA1c levels” value is listed as “higher reduction in mean glycosylated hemoglobin” in assay [1] (FIG. 17, CHST10 position 38,947, reference carriers vs SNP carriers) and “higher reduction in mean glycosylated hemoglobin” in assay [1] (FIG. 18, CHST10 position 41,180, reference carriers vs SNP carriers). Besides, the “mean change in HbA1c levels following saxagliptin treatment” value in assay [1] (Trial A and Trial B, variant SNP carriers at positions 24,707, 34,078, 35,799, 38,709, 38,947 or 41,180 of SEQ ID NO: 5 (CHST10), compared with reference allele homozygotes) is listed as “little change in HbA1c levels”; in assay [1] (reference allele homozygotes at position 34,403 of SEQ ID NO: 3 or 4 (HSD11B1), compared to carriers of the variant allele) it was “greaterreduction in mean HbA1c levels”; in assay [1] (subjects homozygous for the reference allele (T/T) at position 87,992 of SEQ ID NO: 1 or 2 (GRINL1A)) it was “significant reduction in mean HbA1c levels”; in assay [1] (variant SNP carriers (C/T or C/C) at position 87,992 of SEQ ID NO: 1 or 2 (GRINL1A)), “little change in HbA1c levels”; in assay [1] (variant SNP carriers at position 34,403 of SEQ ID NO: 3 or 4 (HSD11B1)) it was “little change in HbA1c levels”. Moreover, in assay [1] (homozygous reference allele (T/T) vs heterozygous (T/C) individuals at position 26,472 of SEQ ID NO: 63 or 64 (TEKT5), both trials), the “mean HbA1C in response to therapy” value is “lower mean HbA1C in response to therapy than heterozygous individuals”. Also, the “mean change in fasting glucose levels” value in assay [2] (FIG. 10, GRINL1A position 87,992, reference carriers vs SNP carriers) is “higher reduction in mean fasting glucose levels”. Also, the “mean change in fasting glucose levels following saxagliptin treatment” value is recorded as “significant reduction in the mean fasting glucose levels” in assay [2] (subjects homozygous for the reference allele (T/T) at position 87,992 of SEQ ID NO: 1 (GRINL1A), compared to carriers of the variant allele) and “little change in the fasting glucose levels” in assay [2] (variant SNP carriers (C/T or C/C) at position 87,992 of SEQ ID NO: 1 (GRINL1A), compared with matched placebo controls). In assay [3] (FIG. 11, GRINL1A position 87,992, reference carriers vs SNP carriers), the “mean change in AUC Glucose levels” value is listed as “higher reduction in AUC Glucose levels”. Also, the “mean change in AUC glucose levels following saxagliptin treatment” value in assay [3] (GRINL1A variant SNP carriers) is “little change in the AUC glucose levels”; in assay [3] (those homozygous for the GRINL1A reference allele), “significant reduction in the AUC glucose levels”.
